The test system of test [1] is eleven types of cancer cells. The experiment in a line: Proliferation inhibition of eleven types of cancer cells (summary by cancer type). It counts as cell-based. As for the experimental part: (§1) The efficacies of compounds 41 and 86 of Formula (I) in inhibiting proliferation of eleven types of cancer cells were determined using PrestoBlue™ Cell Viability Reagent (ThermoFisher Scientific, USA). The eleven types of cancer cells are small cell lung cancer, non-small cell lung cancer, liver cancer, pancreatic cancer, breast cancer, colon cancer, prostate cancer, neuroblastoma, brain cancer, leukemia, and cholangiocarcinoma.
(§2) More specifically, […], i.e., NCI-H82 (ATCC® HTB-175), NCI-H446 (ATCC® HTB-171), NCI-H69 (ATCC® HTB-119), NCI-H146 (ATCC® HTB-173), NCI-H1792 (ATCC® CRL-5895), NCI-H1299 (ATCC® CRL-5803), SNU-398 (ATCC® CRL-2233), PSN-1 (ATCC® CRL-3211), MIA PaCa-2 (ATCC® CRL-1420), MDA-MB-231 (ATCC® HTB-26), LOVO (ATCC® CCL-229), COLO 205 (ATCC® CCL-222), PC-3 (ATCC® CRL-1435), SK-N-BE(2) (ATCC® CRL-2271), D341 Med (ATCC® HTB-187), K562 (ATCC® CCL-243), MOLM-13 (DSMZ-German Collection of Microorganisms and Cell Cultures GmbH, ACC No. 554), and SNU-478 (KCLB 00478), were seeded at a density of 4000-10000 cells per well in 96-well plates for 24 hours. The cancer cells were then treated with each compound at various concentrations (0-10 μM), followed by incubation for another 72 hours. IC50 values were computed based on duplicated 8-point titration.

In test [2] the test system is cMYC. The experiment in a line: Western blot, cMYC protein level in NCI-H82 cells. It counts as cell-based, human. The note with it: NCI-H82 (SCLC) cells; 50, 200, 500, 1000 nM; 24 hours; FIG. 1. As for the experimental part: Compounds 41 and 86, both covered by Formula (I), were tested to assess their efficacies in reducing the level of cMYC oncoprotein in a human small-cell-lung-cancer (“SCLC”) cell line NCI-H82 (ATCC® HTB-175, USA) and the level of MYCN oncoprotein in a human neuroblastoma cell line SK-N-BE(2) (ATCC® CRL-2271, USA) as follows.
NCI-H82 was maintained in RPMI1640 medium (ThermoFisher Scientific, USA) supplemented with 10% fetal bovine serum (FBS, HyClone, USA) and antibiotics. SK-N-BE(2) was maintained in Minimum Essential Medium (MEM, ThermoFisher Scientific, USA) supplemented with 10% FBS (HyClone, USA) and antibiotics. The cancer cells from each cell line were treated with each of compounds 41 and 86 at 4 different compound concentrations, i.e., 50 nM, 200 nM, 500 nM, and 1000 nM. After 24 hours, each cancer cell solution was washed with 1× phosphate buffered saline (PBS), lysed in 1× Laemmli protein sample buffer, and boiled at 100° C. for 10 minutes. Each lysate was separated by SDS-PAGE, transferred to polyvinylidene fluoride (PVDF, Millipore, USA) membrane, and blotted with antibodies. Primary antibodies used for Western blotting were cMYC (Cell Signaling, Cat No. 5605S), MYCN (Cell Signaling, 9405S), PARP-1 (Abcam, ab32378), and GAPDH (Genetex, GTX100118). […]
For orientation: Immunoblotting shows a protein as a band on a membrane.

The test system of test [3] is SK-N-BE(2). Kind of test: Proliferation inhibition of various cancer cells (PrestoBlue), SK-N-BE(2). It counts as cell-based. The note with it: Homo sapiens, SKNBE2; Neuroblastoma; 72 hours. As for the experimental part: as §1, §2
The subject of test [4] is PSN-1. Kind of test: Proliferation inhibition of various cancer cells (PrestoBlue), PSN-1. It counts as cell-based. The note with it: Homo sapiens, PSN1; Pancreatic cancer; 72 hours. As for the experimental part: as §1, §2
The test system of test [5] is NCI-H446. Kind of test: Proliferation inhibition of various cancer cells (PrestoBlue), NCI-H446. The note with it: Homo sapiens, Small cell lung cancer, 72 hours. The class given is cell-based. As for the experimental part:
as §1, §2

Test [6] has as its system LOVO. The experiment in a line: Proliferation inhibition of various cancer cells (PrestoBlue), LOVO. The note with it: Homo sapiens, Colon cancer, 72 hours. The class given is cell-based. As for the experimental part: as §1, §2
Test [7] deals with NCI-H82. The experiment in a line: Proliferation inhibition of various cancer cells (PrestoBlue), NCI-H82. The class given is cell-based. To be noted: Homo sapiens, Small cell lung cancer, 72 hours. As for the experimental part:
as §1, §2

Test [8] addresses T1, human Aurora A (amino acids 123-401) (Homo sapiens, UniProt O14965).
T1 construct: human Aurora A (amino acids 123-401) was expressed in Sf9 insect cells; GST; made in house; host or cells: Sf9 insect cells
T1 sequence (O14965 123-401): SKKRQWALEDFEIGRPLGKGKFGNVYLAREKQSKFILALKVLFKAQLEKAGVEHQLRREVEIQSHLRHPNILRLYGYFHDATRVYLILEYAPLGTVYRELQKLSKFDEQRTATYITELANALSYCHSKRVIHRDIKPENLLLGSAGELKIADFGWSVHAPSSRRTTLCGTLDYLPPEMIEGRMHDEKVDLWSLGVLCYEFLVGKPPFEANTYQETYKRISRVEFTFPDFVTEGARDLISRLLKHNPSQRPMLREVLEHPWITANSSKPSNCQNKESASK
The experiment in a line: Kinase-Glo Luminescent Kinase assay, in vitro inhibition of Aurora A kinase activity. The class given is biochemical. To be noted: recombinant GST-tagged Aurora A, 5.0 μM ATP, 37° C., 120 minutes. The gist of the method: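 GST-tagged Aurora A (aa 123-401) expressed in Sf9 cells, incubated with compound at 100 nM, 5.0 μM ATP and 15 μM tetra(-LRRASLG) peptide in Tris-HCl pH 7.4 with MgCl2, BSA and DTT, 120 min at 37° C. Remaining ATP read by Kinase-Glo Plus luminescence after 20 min at 25° C.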
(Kinase-Glo reads ATP consumption through a luciferase reaction.)

Test [9] has as its system NCI-H1299. The experiment in a line: Proliferation inhibition of various cancer cells (PrestoBlue), NCI-H1299. It counts as cell-based. The note with it: Homo sapiens, Non-small cell lung cancer, 72 hours. Here is the method:
as §1, §2

Test [10] deals with MOLM-13. The experiment in a line: Proliferation inhibition of various cancer cells (PrestoBlue), MOLM-13. To be noted: Homo sapiens, Leukemia, 72 hours. The class given is cell-based. As for the experimental part: as §1, §2
Test [11] relates to SNU-398. Kind of test: Proliferation inhibition of various cancer cells (PrestoBlue), SNU-398. The class given is cell-based. To be noted: Homo sapiens, Liver cancer, 72 hours. Here is the method:
as §1, §2

Setting [12] is: all eleven cancer types, read-out: IC50 in inhibiting proliferation of all the eleven types of cancer cells.
Setting [13] is: breast cancer, read-out: IC50 in inhibiting proliferation of cells.
Where [14] appears, read: cholangiocarcinoma, read-out: IC50 in inhibiting proliferation of cells.
Where [15] appears, read: non-small cell lung cancer, pancreatic cancer, and colon cancer, read-out: IC50 in inhibiting proliferation of cells.
Where [16] appears, read: prostate cancer, read-out: IC50 in inhibiting proliferation of cells.
The mark [17] stands for this setting: small-cell-lung cancer, liver cancer, neuroblastoma, brain cancer, and leukemia, read-out: IC50 in inhibiting proliferation of cells.

Like-named read-outs stand apart in the source and are kept apart here.

From patent US12679827B2, “Pyrimidine compounds and their pharmaceutical uses” (National Health Research Institutes, priority 2020, dated 2026) come the findings set out here.

Take `CCN1CCN(c2cc(Nc3cc(C)[nH]n3)nc(N[C@H]3CCN(C(=O)c4ccc(Cl)cc4F)C3)n2)CC1` [Compound 41]: the IC50 is < 10000 nM in [1] (setting [12]); < 300 nM in [1] (setting [13]); < 2000 nM in test [1] (setting [14]); < 1000 nM in [1] (setting [15]); < 10000 nM in test [1] (setting [16]); < 200 nM in test [1] (setting [17]). Besides, the IC50 in test [3] is < 200 nM; in test [4], < 2000 nM; in test [5], < 200 nM; in test [6] it was < 10000 nM; in test [7] it was < 200 nM; in test [8] it was < 100 nM. Moreover, the IC50 is < 1000 nM in test [9], < 200 nM in [10] and < 200 nM in test [11]. The “protein level of cMYC” value in [2] is listed as “greatly reduced”.
On to `CCN1CCN(c2cc(Nc3cc(C)[nH]n3)nc(NC3CCN(C(=O)c4cccc(Cl)c4F)CC3)n2)CC1` [Compound 86], for which the IC50 in test [1] (setting [12]) is < 10000 nM; in test [1] (setting [13]), < 300 nM; in test [1] (setting [14]), < 2000 nM; in [1] (setting [15]) it was < 1000 nM; in test [1] (setting [16]), < 10000 nM; in test [1] (setting [17]), < 200 nM. The IC50 was < 200 nM in test [3]; < 2000 nM in [4]; < 200 nM in test [5]; < 10000 nM in test [6]; < 300 nM in test [7]; < 100 nM in test [8]. Moreover, the IC50 in [9] was < 1000 nM; in [10] it was < 200 nM; in [11], < 200 nM. Besides, the “protein level of cMYC” value in [2] is “greatly reduced”.
